The values below come from paper PMC10892375, “Determination of the Cannabinoid CB1 Receptor’s Positive Allosteric Modulator Binding Site through Mutagenesis Studies” (Pharmaceuticals, 2024).

Structures are written as SMILES.

Format in all cases: cell-based
The target in assay [1] is T1, hCB1 mutant Y172A^2.59 (Homo sapiens, UniProt P21554, Y172A).
T1 construct: expressed in transfected cells; host or cells: HEK293
Put plainly: pIRES G protein dissociation BRET assay, Y172A mutant. Particulars: for G protein dissociation, AUC of 10 μM compound (maximal response): 10 μM ligand alone. On the procedure:
(§1) Mutagenesis studies using the pIRES G protein dissociation assay were performed using human embryonic kidney 293 (HEK293) wild-type cells transiently transfected with pplss-3HA-hCB1 [31] or modified receptor. All cells were cultured in Dulbecco’s Modified Eagle’s Medium (DMEM) supplemented with 10% fetal bovine serum (FBS), grown in […] vented-cap flasks, and maintained in a 37° C incubator at 5% CO2.
(§2) Mutants of pplss-3HA-hCB1 (WT, pEF-V4-HisA (pEF4a) construct) were generated using a modified QuikChange® (Stratagene, San Diego, CA, USA) site-directed mutagenesis approach using KAPA HiFi Hotstart Polymerase (KAPA Biosystems, Roche, Basel, Switzerland). Briefly, single-stranded primers used to modify one or two base pairs within the target amino acid using PCR were purchased from Integrated DNA Technologies (IDT, Coralville, IA, USA). All pplss-hCB1 mutants were generated using the pplss-3HA-hCB1 pEF4a as parental DNA. PCR products were generated using recommended cycling conditions and treated with Dpn1 (New England Biolabs, Ipswich, MA, USA) overnight at 37° C to digest methylated parental DNA. PCR products were electrophoresed and run on an agarose gel (1% (w.v^−1) agarose, HydraGene, Piscataway, NJ, USA) containing 0.25 μg/mL ethidium bromide (Sigma-Aldrich, St. Louis, MO, USA). Gels were run in 40 mM TRIS-acetate buffer containing […] (pH 8.3) at 100 V for 30 min, maximum current and included a 1kb+ DNA ladder (Invitrogen, Thermo Fisher Scientific, Carlsbad, CA, USA) for reference. Gels were imaged using an UVTech Alliance Q9 Mini transilluminator (UVTech Alliance, Cambridge, UK). Digested products were then used to transform NEB 5α competent E. coli cells in accordance with manufacturer’s instructions. Briefly, transformed PCR products were grown overnight on 8.5 mL Luria Broth agar plates (containing 100 μg/mL ampicillin) at 37° C. Single bacterial colonies were picked and inoculated in Luria Broth (containing 100 μg/mL ampicillin) and grown overnight in a shaking incubator at 37° C. Plasmids were then harvested and purified using a Qiagen miniprep kit (Qiagen, Hilden, Germany) and validated using sequencing (Genetics Analysis Service, University of Otago, Dunedin, New Zealand).
(§3) Dissociation of the G protein heterotrimer, specifically Gαi1, Gβ1, and Gγ2, was investigated using a bioluminescence resonance energy transfer (BRET) assay with the pIRES biosensor first described by and adapted by.
(§4) Briefly, 3 × 10^6 WT HEK293 cells were seeded into 10 cm culture dishes (Corning, Corning, NY, USA; one dish for the control receptor and one for each modified receptor) and incubated at 37 °C for 24 h to gain 50–60% confluency. Culture medium was then replaced and transfection mixtures containing 3 μg pIRES vector and 1 μg receptor (either pplss-hCB1 or modified receptor) were prepared (4 μg total DNA). Plasmids were initially diluted in sterile Milli-Q water before being diluted in OptiMEM reduced serum medium (Thermo Fisher Scientific, Waltham, MA, USA) and combined with […] polyethylenimine (PEI)-max (1:9 DNA:PEI-max ratio) and incubated at room temperature for 20 min. Transfection mixtures were then added to cells via dropwise addition, and cells were incubated at 37 °C for 24 h. Transfected cells were lifted and plated at 50,000 cells/well into poly-d-lysine (PDL; Sigma-Aldrich) coated white 96-well CulturPlates (PerkinElmer, Waltham, MA, USA) and incubated for a further 24 h at 37 °C.
(§5) To assay, the culture medium was aspirated and cells were washed with phosphate buffered saline (PBS) and replaced with BRET assay medium (phenol red free DMEM containing 25 mM HEPES and supplemented with 1 mg/mL bovine serum albumin; BSA, MP Biomedicals, Auckland, New Zealand) for 30 min prior to drug addition (serum starve). Drugs were prepared at 10 × concentration in BRET assay medium, combined in a polypropylene V-bottom plate, and incubated at 37° C prior to drug stimulation.
On the technique in general: Bioluminescence resonance energy transfer reports proximity on the nanometre scale.

In assay [2] the target is T2, hCB1 mutant F191A^3.27 (Homo sapiens, UniProt P21554, F191A).
T2 construct: expressed in transfected cells; host or cells: HEK293
T2 sequence (P21554 whole entry F191A): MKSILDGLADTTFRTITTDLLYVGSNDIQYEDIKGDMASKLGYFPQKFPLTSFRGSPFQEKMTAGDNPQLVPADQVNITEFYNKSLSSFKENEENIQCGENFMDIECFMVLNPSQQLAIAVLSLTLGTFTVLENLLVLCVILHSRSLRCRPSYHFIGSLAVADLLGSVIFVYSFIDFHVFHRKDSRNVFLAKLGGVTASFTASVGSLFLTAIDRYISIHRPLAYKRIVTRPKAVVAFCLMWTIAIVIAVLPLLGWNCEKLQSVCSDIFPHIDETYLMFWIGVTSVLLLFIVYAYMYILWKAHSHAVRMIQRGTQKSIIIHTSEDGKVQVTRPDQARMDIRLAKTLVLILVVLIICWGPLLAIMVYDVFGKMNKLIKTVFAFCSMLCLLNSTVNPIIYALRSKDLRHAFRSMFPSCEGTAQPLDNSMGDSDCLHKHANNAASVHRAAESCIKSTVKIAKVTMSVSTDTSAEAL
Put plainly: pIRES G protein dissociation BRET assay, F191A mutant. Particulars: for G protein dissociation, AUC of 10 μM compound (maximal response): 10 μM ligand alone; for Allosteric agonism: G protein dissociation in the absence of an orthosteric ligand: 10 μM, result in words. On the procedure: as §1, §2, §3, §4, §5

The target in assay [3] is T3, hCB1 mutant H154A^2.41 (Homo sapiens, UniProt P21554, H154A).
T3 construct: expressed in transfected cells; host or cells: HEK293
T3 sequence (P21554 whole entry H154A): as the sequence (P21554 whole entry F191A) above, with H154A, A191F counted along it
Nature of the assay: pIRES G protein dissociation BRET assay, H154A mutant. Particulars: 10 μM ligand alone. On the procedure:
as §1, §2, §3, §4, §5

Assay [4] concerns the target T4, hCB1 mutant F237A^4.46 (Homo sapiens, UniProt P21554, F237A).
T4 construct: expressed in transfected cells; host or cells: HEK293
Nature of the assay: pIRES G protein dissociation BRET assay, F237A mutant. Particulars: 10 μM ligand alone. On the procedure: as §1, §2, §3, §4, §5

In assay [5] the target is T5, hCB1 mutant R220A^3.56 (Homo sapiens, UniProt P21554, R220A).
T5 construct: expressed in transfected cells; host or cells: HEK293
T5 sequence (P21554 whole entry R220A): as the sequence (P21554 whole entry F191A) above, with A191F, R220A counted along it
Nature of the assay: pIRES G protein dissociation BRET assay, R220A mutant. The settings on record: 10 μM ligand alone. On the procedure: as §1, §2, §3, §4, §5

Assay [6] has as its target T6, hCB1 mutant L404A^8.50 (Homo sapiens, UniProt P21554, L404A).
T6 construct: expressed in transfected cells; host or cells: HEK293
Nature of the assay: pIRES G protein dissociation BRET assay, L404A mutant. Particulars: 10 μM ligand alone. On the procedure: as §1, §2, §3, §4, §5

The target in assay [7] is T7, hCB1 mutant F408A^8.54 (Homo sapiens, UniProt P21554, F408A).
T7 construct: expressed in transfected cells; host or cells: HEK293
T7 sequence (P21554 whole entry F408A): as the sequence (P21554 whole entry F191A) above, with A191F, F408A counted along it
Put plainly: pIRES G protein dissociation BRET assay, F408A mutant. The settings on record: 10 μM ligand alone. On the procedure: as §1, §2, §3, §4, §5

T1 sequence (P21554 whole entry Y172A): as the sequence (P21554 whole entry F191A) above, with Y172A, A191F counted along it
T6 sequence (P21554 whole entry L404A): as the sequence (P21554 whole entry F191A) above, with A191F, L404A counted along it
T4 sequence (P21554 whole entry F237A): as the sequence (P21554 whole entry F191A) above, with A191F, F237A counted along it

In the case of `Cc1ccc2c(C(C[N+](=O)[O-])c3cccs3)c(-c3ccccc3)[nH]c2c1` (centres unmarked) [ZCZ011, 6-Methyl-3-(2-nitro-1-(thiophen-2-yl)ethyl)-2-phenyl-1 H-indole], the “G protein dissociation, AUC of 10 μM compound (maximal response)” value (“G protein dissociation, AUC” for short) was −142.1 ± 14.4 in assay [1]; 35.0 ± 8.4 in assay [2]; −129.4 ± 5.1 in assay [3]; −64.2 ± 4.1 in assay [4]; −95.7 ± 7.7 in assay [5]; −85.2 ± 7.3 in assay [6]. In assay [7], the “G protein dissociation, AUC” value is on record as −116.9 ± 10.1. Further, the “Allosteric agonism: G protein dissociation in the absence of an orthosteric ligand” value in assay [2] is “abolished”.
Turning to `O=[N+]([O-])C[C@@H](c1ccccc1)c1c(-c2ccccc2)[nH]c2ccccc12` [GAT229], in assay [1] (10 μM allosteric ligand), the “Increase in the potency of CP55940-induced G protein dissociation” value is “less than 0.5 log units”. For the same molecule, the “G protein dissociation, AUC” value is listed as −207.0 ± 7.1 in assay [1]; 22.1 ± 6.4 in assay [2]; −154.6 ± 7.8 in assay [3]; −52.4 ± 5.2 in assay [4]; −102.9 ± 9.9 in assay [5]; −88.9 ± 6.2 in assay [6]. In assay [7], the “G protein dissociation, AUC” value is on record as −110.0 ± 8.6. In assay [2], the “Allosteric agonism: G protein dissociation in the absence of an orthosteric ligand” value is “abolished”.
